For 34 compounds, Emax and EC50 results are on record in patent publication US20250074901A1, “NOVEL HETEROARYL COMPOUNDS” (ICAGEN, LLC, priority 2021, published 2025).

A word on the Emax: it is the greatest response seen or fitted, relative to the assay's reference. Usually EC50 stands for the concentration giving half of the maximal effect.

The target in this assay is T1, Kv7.2 (Homo sapiens, UniProt O43526).
T1 construct: expressed in transfected cells
Put plainly: Activation of Kv7.2 (in vitro assay, concentration response curve). Type of assay: cell-based. The conditions noted are these: for Emax: Kv7.2 activation max %; for EC50: activation of Kv7.2. The method, boiled down: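 Agonist activity was measured in vitro across a range of compound concentrations and plotted as a sigmoidal concentration–response curve. EC50 is the concentration giving 50% of that compound's own maximal response (Emax).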

Turning to `Cc1cc(NC(=O)NC(CO)c2ccnc(OCC(F)(F)F)c2)ccc1F` (centres unmarked) [Example 205, 1-(4-fluoro-3-methylphenyl)-3-[2-hydroxy-1-[2-(2,2,2-trifluoroethoxy)pyridin-4-yl]ethyl]urea], the Emax worked out at 64% and it took 240 nM to reach a half-maximal effect (EC50).

As to `O=C(NCc1ccnc(OCF)c1)NC12CCC(F)(CC1)CC2` [Example 208, 1-(4-fluoro-1-bicyclo[2.2.2]octanyl)-3-[[2-(fluoromethoxy)pyridin-4-yl]methyl]urea], the Emax worked out at 58% and the EC50 amounted to 470 nM.

In the case of `O=C(NCc1ccnc(OC2CC(F)(F)C2)c1)N[C@H]1C[C@H](C(F)(F)F)C1` [Example 209, 1-[[2-(3,3-difluorocyclobutyl)oxypyridin-4-yl]methyl]-3-[(1r,3r)-3-(trifluoromethyl)cyclobutyl]urea], the Emax was found to be 71% and the EC50 was 490 nM.

In turn, `O=C(NCc1ccnc(OCC(F)(F)F)c1)NCC1(F)CCC1` [Example 210, 1-[(1-fluorocyclobutyl)methyl]-3-[[2-(2,2,2-trifluoroethoxy)pyridin-4-yl]methyl]urea] yielded an Emax of 48% and an EC50 of 160 nM.

The compound `O=C(NCc1ccnc(OC(F)F)c1)N[C@H]1CC[C@@H](C(F)(F)F)CC1` [Example 211, 1-[[2-(difluoromethoxy)pyridin-4-yl]methyl]-3-[(1s,4s)-4-(trifluoromethyl)cyclohexyl]urea] had an Emax of 61% and an EC50 of 320 nM.

`C[Si](C)(C)CCNC(=O)NCc1ccnc(OC(F)F)c1` [Example 212, 1-[[2-(difluoromethoxy)pyridin-4-yl]methyl]-3-(2-trimethylsilylethyl) urea] registered an Emax of 82% and an EC50 of 400 nM.

Regarding `O=C(NCc1ccnc(OCC(F)CF)c1)NC12CCC(F)(CC1)CC2` (centres unmarked) [Example 213, 1-[[2-(2,3-difluoropropoxy)pyridin-4-yl]methyl]-3-(4-fluoro-1-bicyclo[2.2.2]octanyl)urea], the Emax worked out at 47% and the EC50 was found to be 340 nM.

`O=C(NCc1ccnc(OCC(F)CF)c1)N[C@H]1C[C@H](C(F)(F)F)C1` (some centres unmarked) [Example 214, 1-[[2-(2,3-difluoropropoxy)pyridin-4-yl]methyl]-3-[(1r,3r)-3-(trifluoromethyl)cyclobutyl]urea]: the Emax came out at 54% and the response was half-maximal at 500 nM (EC50).

Compound `O=C(NCc1cnnc(OCC(F)(F)F)c1)N[C@H]1C[C@H](C(F)(F)F)C1` [Example 215] displayed an Emax of 40% and an EC50 of 6830 nM.

In the case of `O=C(NCc1ccnc(OCC(F)CF)c1)NC12CC(F)(C1)C2` (centres unmarked) [Example 216, 1-[[2-(2,3-difluoropropoxy)pyridin-4-yl]methyl]-3-(3-fluoro-1-bicyclo[1.1.1]pentanyl)urea], the Emax amounted to 50% and the EC50 worked out at 1470 nM.

As for `O=C(NCc1ccnc(OCC(F)F)c1)NC12CC(F)(C1)C2` [Example 217, 1-[[2-(2,2-difluoroethoxy)pyridin-4-yl]methyl]-3-(3-fluoro-1-bicyclo[1.1.1]pentanyl)urea], the Emax amounted to 43% and the EC50 turned out to be 310 nM.

In turn, `Cc1cccc(NC(=O)NCc2ccnc(OC(F)F)c2)n1` [Example 218, 1-[[2-(difluoromethoxy)pyridin-4-yl]methyl]-3-(6-methylpyridin-2-yl)urea] gave an Emax of 54% and a 50% effective concentration (EC50) of 1490 nM.

Compound `O=C(NCc1ccnc(OC(F)F)c1F)N[C@H]1C[C@H](C(F)(F)F)C1` [Example 219, 1-[[2-(difluoromethoxy)-3-fluoropyridin-4-yl]methyl]-3-[(1r,3r)-3-(trifluoromethyl)cyclobutyl]urea] registered an Emax of 48% and an EC50 of 380 nM.

Take `O=C(NCc1ccnc(OCC(F)CF)c1)Nc1cccc(Cl)c1` (centres unmarked) [Example 220, 1-(3-chlorophenyl)-3-[[2-(2,3-difluoropropoxy)pyridin-4-yl]methyl]urea]: the Emax was 48% and the midpoint of the response, the EC50, lay at 460 nM.

For the compound `CC(Oc1cc(CNC(=O)N[C@H]2C[C@H](C(F)(F)F)C2)ccn1)C(F)(F)F` (some centres unmarked) [Example 221, 1-[(1r,3r)-3-(trifluoromethyl)cyclobutyl]-3-[[2-(1,1,1-trifluoropropan-2-yloxy)pyridin-4-yl]methyl]urea], the Emax worked out at 78% and the EC50 came out at 70 nM.

`O=C(NCc1ccnc(OC(F)F)c1)NC1CCC2C(C1)C2(F)F` (centres unmarked) [Example 222, 1-(7,7-difluoro-3-bicyclo[4.1.0]heptanyl)-3-[[2-(difluoromethoxy)pyridin-4-yl]methyl]urea] registered an Emax of 76% and an EC50 of 180 nM.

`CC(Oc1cc(CNC(=O)NC23CC(F)(C2)C3)ccn1)C(F)(F)F` (centres unmarked) [Example 223, 1-(3-fluoro-1-bicyclo[1.1.1]pentanyl)-3-[[2-(1,1,1-trifluoropropan-2-yloxy)pyridin-4-yl]methyl]urea] returned an Emax of 66% and an EC50 of 210 nM.

`O=C(NCc1ccnc(OC2CC(F)(F)C2)c1)NC12CC(F)(C1)C2` [Example 224, 1-[[2-(3,3-difluorocyclobutyl)oxypyridin-4-yl]methyl]-3-(3-fluoro-1-bicyclo[1.1.1]pentanyl)urea] yielded an Emax of 40% and an EC50 of 540 nM.

As for `O=C(NCc1ccnc(OC(F)F)c1)NC1CCOC(C(F)(F)F)C1` (centres unmarked) [Example 226, 1-[[2-(difluoromethoxy)pyridin-4-yl]methyl]-3-[2-(trifluoromethyl)oxan-4-yl]urea], the Emax was 40% and the half-maximal effective concentration (EC50) amounted to 2450 nM.

For `O=C(NCc1ccnc(OC(F)F)c1)NCC1(F)CCCC1` [Example 227, 1-[[2-(difluoromethoxy)pyridin-4-yl]methyl]-3-[(1-fluorocyclopentyl)methyl]urea], the Emax turned out to be 49% and the EC50 was 410 nM.

Regarding `O=C(NCc1ccnc(OC(F)F)c1)NC(C(F)(F)F)C(F)(F)F` [Example 228, 1-[[2-(difluoromethoxy)pyridin-4-yl]methyl]-3-(1,1,1,3,3,3-hexafluoropropan-2-yl)urea], the Emax was found to be 58% and a half-maximal response (EC50) required 260 nM.

`O=C(NCc1ccnc(OC(F)F)c1)NCC1(C(F)(F)F)CC1` [Example 229, 1-[[2-(difluoromethoxy)pyridin-4-yl]methyl]-3-[[1-(trifluoromethyl)cyclopropyl]methyl]urea] displayed a maximal response (Emax) of 49% and an EC50 of 600 nM.

`O=C(NCc1ccnc(OC(F)F)c1)N[C@@H](C(F)F)C1CC(F)(F)C1` [Example 230, 1-[(1R)-1-(3,3-difluorocyclobutyl)-2,2-difluoroethyl]-3-[[2-(difluoromethoxy)pyridin-4-yl]methyl]urea] came in with an Emax of 55% and an EC50 of 1090 nM.

On to `CC(F)(F)c1cc(CNC(=O)Nc2cccc(Cl)c2)ccn1` [Example 231, 1-(3-chlorophenyl)-3-[[2-(1,1-difluoroethyl)pyridin-4-yl]methyl]urea], for which the Emax turned out to be 51% and a half-maximal effect (EC50) was put at 800 nM.

As to `O=C(Nc1cccc(CF)c1)NC(CO)c1ccnc(OCC(F)(F)F)c1` (centres unmarked) [Example 232, 1-[3-(fluoromethyl)phenyl]-3-[2-hydroxy-1-[2-(2,2,2-trifluoroethoxy)pyridin-4-yl]ethyl]urea], the Emax was 47% and the EC50 stood at 250 nM.

On to `Cc1cccc(NC(=O)NC(CO)c2ccnc(OCC(F)(F)F)c2)c1` (centres unmarked) [Example 233, 1-[2-hydroxy-1-[2-(2,2,2-trifluoroethoxy)pyridin-4-yl]ethyl]-3-(3-methylphenyl)urea], for which the Emax amounted to 68% and a half-maximal response (EC50) required 130 nM.

`O=C(NCc1ccnc(OCC(F)(F)F)c1)NC1CC(C2CC2)C1` (centres unmarked) [Example 235, 1-(3-cyclopropylcyclobutyl)-3-[[2-(2,2,2-trifluoroethoxy)pyridin-4-yl]methyl]urea]: the Emax was 88% and a half-maximal response (EC50) required 80 nM.

Compound `O=C(NCc1ccnc(OC(F)F)c1)NCC1(C(F)(F)F)CCC1` [Example 237, 1-[[2-(difluoromethoxy)pyridin-4-yl]methyl]-3-[[1-(trifluoromethyl)cyclobutyl]methyl]urea] came in with an Emax of 54% and an EC50 of 160 nM.

In turn, `O=C(NCc1ccnc(OCC(F)(F)F)c1)N[C@@H]1C[C@@H]2[C@H](C1)C2(F)F` [Example 238, 1-[(1R,3s,5S)-6,6-difluoro-3-bicyclo[3.1.0]hexanyl]-3-[[2-(2,2,2-trifluoroethoxy)pyridin-4-yl]methyl]urea] returned an Emax of 79% and an EC50 of 60 nM.

For `O=C(NCc1ccnc(OC(F)F)c1)N[C@H]1CC[C@H](F)C1` [Example 239, 1-[[2-(difluoromethoxy)pyridin-4-yl]methyl]-3-[(1S,3S)-3-fluorocyclopentyl]urea], the maximum response (Emax) stood at 57% and it took 440 nM to reach a half-maximal effect (EC50).

Compound `O=C(Nc1ccc(F)c(F)c1)NC(CO)c1ccnc(OC(F)F)c1` (centres unmarked) [Example 240, 1-[1-[2-(difluoromethoxy)pyridin-4-yl]-2-hydroxyethyl]-3-(3,4-difluorophenyl)urea] returned an Emax of 55% and an EC50 of 300 nM.

As for `O=C(NCc1ccnc(OC(F)F)c1)N[C@H](C1CCC1)C(F)(F)F` [Example 241, 1-[(1R)-1-cyclobutyl-2,2,2-trifluoroethyl]-3-[[2-(difluoromethoxy)pyridin-4-yl]methyl]urea], the Emax is 68% and the EC50 was 70 nM.

`O=C(NCc1ccnc(OC(F)F)c1)N[C@@H](C1CCC1)C(F)(F)F` [Example 242, 1-[(1S)-1-cyclobutyl-2,2,2-trifluoroethyl]-3-[[2-(difluoromethoxy)pyridin-4-yl]methyl]urea] registered an Emax of 51% and an EC50 of 750 nM.

As to `O=C(NCc1ccnc(OC(F)F)n1)N[C@H]1C[C@H](C(F)(F)F)C1` [Example 243, 1-[[2-(difluoromethoxy)pyrimidin-4-yl]methyl]-3-[(1r,3r)-3-(trifluoromethyl)cyclobutyl]urea], the Emax was 42% and a half-maximal response (EC50) required 760 nM.
